Values quoted from earlier work as cited in patent publication US20100227930A1 (priority 2009, published 2010).

Columns and labels:
[1] = tested on: algae; conditions: duration not given
[2] = tested on: Daphnia magna
[3] = tested on: fish; conditions: in vivo
[4] = species not given
[5] = compared with the 2:1:1 blend of three quaternary ammonium compounds
[6] = tested on: rainbow trout; conditions: in vivo

O=C([O-])CC(NC(CC(=O)[O-])C(=O)[O-])C(=O)[O-].[Na+].[Na+].[Na+].[Na+] (stereo not drawn) [IDS, iminodisuccinate tetrasodium salt]
DL50 oral rat acute toxicity: over 2,000 mg/kg
EC50 Algae [1]: 94.5 µg/mL
EC0 Daphnia Magna ([2]; in vivo): 84 mg/L
acute aquatic toxicity fish [3]: 82.6 mg/L

COC(C)COC(C)CO (stereo not drawn) [Dipropylene glycol methyl ether]
aquatic acute toxicity [4]: > 100 mg/L

CCCCCCCCCC[N+](C)(C)CCCCCCCCCC.[Cl-] [didecyl dimethyl ammonium chloride]
water solubility [5]: poorer water solubility

O=C([O-])CCC(C(=O)[O-])N(CC(=O)[O-])CC(=O)[O-].[Na+].[Na+].[Na+].[Na+] (stereo not drawn) [Dissolvine GL, Glutamic acid, N,N Diacetic acid and their Tetrasodium salts]
EC50 fish (rainbow trout) [6]: > 100 µg/mL
EC50 Algae [1]: > 100 µg/mL
EC50 Daphnia Magna ([2]; duration not given): > 100 µg/mL
